The values that follow come from patent publication US8741934B2, “Inhibitors of ion channels” (Pfizer Limited, priority 2007, dated 2014).

pIC50: −log10 of the molar value.

T1 sequence (Q9NY46 whole entry): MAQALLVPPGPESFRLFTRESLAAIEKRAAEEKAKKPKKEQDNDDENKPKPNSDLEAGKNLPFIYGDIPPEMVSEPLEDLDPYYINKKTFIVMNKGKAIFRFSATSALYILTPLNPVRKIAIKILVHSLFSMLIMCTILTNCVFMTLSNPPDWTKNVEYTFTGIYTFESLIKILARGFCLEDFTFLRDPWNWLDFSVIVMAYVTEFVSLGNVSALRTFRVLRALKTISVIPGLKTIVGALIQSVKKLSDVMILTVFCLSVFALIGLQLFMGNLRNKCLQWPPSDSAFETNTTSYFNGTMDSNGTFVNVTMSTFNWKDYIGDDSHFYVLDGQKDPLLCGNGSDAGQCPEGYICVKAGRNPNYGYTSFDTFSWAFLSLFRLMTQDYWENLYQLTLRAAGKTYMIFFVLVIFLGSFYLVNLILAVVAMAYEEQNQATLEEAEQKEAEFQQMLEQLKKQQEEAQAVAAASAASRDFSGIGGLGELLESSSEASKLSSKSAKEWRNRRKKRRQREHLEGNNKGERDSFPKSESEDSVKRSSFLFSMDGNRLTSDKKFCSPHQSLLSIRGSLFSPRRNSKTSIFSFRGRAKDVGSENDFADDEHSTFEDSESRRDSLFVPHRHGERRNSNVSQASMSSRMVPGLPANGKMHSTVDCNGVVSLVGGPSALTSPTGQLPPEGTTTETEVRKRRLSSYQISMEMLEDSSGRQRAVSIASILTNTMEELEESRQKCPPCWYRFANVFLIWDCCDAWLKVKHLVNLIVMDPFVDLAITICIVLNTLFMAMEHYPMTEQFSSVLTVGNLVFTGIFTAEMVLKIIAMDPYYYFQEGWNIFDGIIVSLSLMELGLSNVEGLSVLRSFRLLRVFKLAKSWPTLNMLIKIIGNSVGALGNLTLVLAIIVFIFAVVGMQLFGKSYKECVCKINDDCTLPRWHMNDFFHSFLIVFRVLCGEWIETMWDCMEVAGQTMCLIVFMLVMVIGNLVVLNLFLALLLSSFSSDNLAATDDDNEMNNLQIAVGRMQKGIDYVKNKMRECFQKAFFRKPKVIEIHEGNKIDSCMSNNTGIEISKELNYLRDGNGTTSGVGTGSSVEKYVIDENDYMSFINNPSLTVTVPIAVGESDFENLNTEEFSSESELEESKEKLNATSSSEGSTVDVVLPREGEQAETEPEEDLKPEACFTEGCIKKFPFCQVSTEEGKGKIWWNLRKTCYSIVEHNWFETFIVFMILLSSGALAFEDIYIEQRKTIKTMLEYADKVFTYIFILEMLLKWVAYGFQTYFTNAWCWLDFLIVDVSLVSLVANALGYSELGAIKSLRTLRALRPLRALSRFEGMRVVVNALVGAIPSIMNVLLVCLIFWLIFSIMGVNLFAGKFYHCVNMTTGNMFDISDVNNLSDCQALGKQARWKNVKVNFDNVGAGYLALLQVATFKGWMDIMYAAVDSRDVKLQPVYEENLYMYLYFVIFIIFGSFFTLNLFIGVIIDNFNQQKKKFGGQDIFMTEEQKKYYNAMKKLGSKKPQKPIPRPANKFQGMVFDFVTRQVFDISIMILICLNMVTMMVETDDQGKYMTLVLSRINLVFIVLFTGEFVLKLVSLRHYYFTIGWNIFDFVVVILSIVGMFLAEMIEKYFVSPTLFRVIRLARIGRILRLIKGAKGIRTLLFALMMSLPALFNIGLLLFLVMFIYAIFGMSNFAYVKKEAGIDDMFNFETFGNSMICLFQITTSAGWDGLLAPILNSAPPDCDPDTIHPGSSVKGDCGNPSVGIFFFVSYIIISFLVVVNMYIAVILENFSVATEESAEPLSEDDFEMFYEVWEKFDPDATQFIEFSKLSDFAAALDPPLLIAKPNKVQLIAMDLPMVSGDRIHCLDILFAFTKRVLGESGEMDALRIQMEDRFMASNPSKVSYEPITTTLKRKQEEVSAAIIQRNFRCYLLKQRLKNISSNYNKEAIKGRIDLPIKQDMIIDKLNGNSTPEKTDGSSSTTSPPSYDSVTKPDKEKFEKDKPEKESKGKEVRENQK

The first assay concerns the target T1, hSCN3A sodium channels (Homo sapiens, UniProt Q9NY46).
T1 construct: expressed in transfected cells
In words: hSCN3A electrophysiology, whole-cell patch-clamp or PatchXpress 7000, estimated IC-50 (Table B). Type of assay: cell-based. Particulars: estimated IC-50; hSCN3A cells, whole-cell patch-clamp or PatchXpress 7000; read-out: SCN3A EIC-50. As to the method:
Human Embryonic Kidney (HEK) cells were transfected with an hSCN3A construct using lipofectamine reagent (Invitrogen), using standard techniques. […] Clones were screened for expression using the whole-cell voltage-clamp technique.
HEK cells stably transfected with hSCN3A were maintained in DMEM medium supplemented with 10% heat-inactivated fetal bovine serum and 400 μg/ml G418 sulfate in an incubator at 37° C. with a humidified atmosphere of 10% CO2. […] For electrophysiological studies, cells were removed from the culture flask by brief trypsinization and replated at low density onto glass cover slips. Cells were typically used for electrophysiological experiments within 24 to 72 h after plating.
All recordings were made at room temperature (22-24° C.) using AXOPATCH 200B amplifiers and PCLAMP software (Axon Instruments, Burlingame, Calif.) or PatchXpress 7000 hardware and associated software (Axon Instruments, Burlingame, Calif.).
Current records were acquired at 20 to 50 KHz and filtered at 5 to 10 KHz.
HEK cells stably transfected with hSCN3A were viewed under Hoffman contrast optics and placed in front of an array of flow pipes emitting either control or compound-containing extracellular solutions. All compounds were dissolved in dimethyl sulfoxide to make 10 mM stock solutions, which were then diluted into extracellular solution to attain the final concentrations desired.
The voltage-dependence of inactivation was determined by applying a series of depolarizing prepulses (8 sec long in 10 mV increments) from a negative holding potential. The voltage was then immediately stepped to 0 mV to assess the magnitude of the sodium current. Currents elicited at 0 mV were plotted as a function of prepulse potential to allow estimation of the voltage midpoint of inactivation (V1/2). Cells were then voltage clamped at the empirically determined V1/2.
Compounds were tested for their ability to inhibit hSCN3A sodium channels by activating the channel with a 20 msec voltage step to 0 mV following an 8 second conditioning prepulse to the empirically determined V1/2 (Table B). Compound effect (% inhibition) was determined by difference in current amplitude before and after application of test compounds. […] Inhibition values <20% and >80% were excluded from the calculation.
In some cases electrophysiological assays were conducted with PatchXpress 7000 hardware and associated software (Molecular Devices Corp) (Table B). All assay buffers and solutions were identical to those used in conventional whole-cell voltage clamp experiments described above. hSCN3A cells were grown as above to 50%-80% confluency and harvested by trypsinization. Trypsinized cells were washed and resuspended in extracellular buffer at a concentration of 1×10^6 cells/ml. The onboard liquid handling facility of the PatchXpress was used for dispensing cells and application of test compounds. Determination of the voltage midpoint of inactivation was as described for conventional whole-cell recordings. Cells were then voltage-clamped to the empirically determined V1/2 and current was activated by a 20 msec voltage step to 0 mV.
As to `O=C(NCc1ccc(C(F)(F)F)cc1)c1ccc(S(=O)(=O)Nc2nccs2)cc1F` [Example 325, 2-Fluoro-4-[(1,3-thiazol-2-ylamino)sulfonyl]-N-[4-(trifluoromethyl)benzyl]benzamide], the pIC50 was 6.34.

`Cc1cc(NS(=O)(=O)c2ccc(C(=O)NCc3ccc(C(F)(F)F)cc3)cc2)no1` [Example 18, 4-{[(5-Methylisoxazol-3-yl)amino]sulofnyl}-N-[4-(trifluoromethyl)benzyl]benzamide]: the pIC50 is 5.65.

For the compound `O=C(NCc1ccc(C(F)(F)F)c(Cl)c1)c1ccc(S(=O)(=O)Nc2ncc(Cl)s2)cc1` [Example 30, 4-{[(5-Chloro-1,3-thiazol-2-yl)amino]sulfonyl}-N-[3-chloro-4-(trifluoromethyl)benzyl]benzamide], the pIC50 is 7.52.

Regarding `O=C(NCc1ccc(Cl)c(F)c1)c1ccc(S(=O)(=O)Nc2nccs2)cc1F` [Example 334, N-(4-chloro-3-fluorobenzyl)-2-fluoro-4-[(1,3-thiazol-2-ylamino)sulfonyl] benzamide], the pIC50 was 6.47.

On to `COc1ccccc1C1CN(C(=O)c2ccc(S(=O)(=O)Nc3nccs3)cc2)CCO1` (centres unmarked) [Example 232, 4-{[2-(2-Methoxyphenyl)morpholin-4-yl]carbonyl}-N-1,3-thiazol-2-yl-benzenesulfonamide], for which the pIC50 was 5.47.

In the case of `O=C(c1ccc(S(=O)(=O)Nc2nccs2)cc1)N1CCC[C@H]1COc1cccc(Cl)c1` [Example 384, 4-({(2S)-2-[(3-chlorophenoxy)methyl]pyrrolidin-1-yl}carbonyl)-N-1,3-thiazol-2-ylbenzenesulfonamide], the pIC50 was 6.46.

Regarding `Cc1cnc(NS(=O)(=O)c2ccc(C(=O)NCc3ccc(C(F)(F)F)cc3)cc2)s1` [Example 22, 4-{[(5-methyl-1,3-thiazol-2-yl)amino]sulfonyl}-N-[4-(trifluoromethyl)benzyl] benzamide], the pIC50 was 6.02.

Take `O=C(NCc1ccc(C(F)(F)F)c(F)c1)c1ccc(S(=O)(=O)Nc2ncc(Cl)s2)cc1F` [Example 356, 4-{[(5-Chloro-1,3-thiazol-2-yl)amino]sulfonyl}-2-fluoro-N-[3-fluoro-4-(trifluoromethyl)benzyl]benzamide]: the pIC50 is 6.68.

Consider `O=C(NCc1ccc(F)c(C(F)(F)F)c1)c1ccc(S(=O)(=O)Nc2ncc(Cl)s2)cc1` [Example 34, 4-{[(5-Chloro-1,3-thiazol-2-yl)amino]sulfonyl}-N-[4-fluoro-3-(trifluoromethyl)benzyl]benzamide], for which the pIC50 is 7.05.

In the case of `COc1cccc(CC2CCCN(C(=O)c3ccc(S(=O)(=O)Nc4nccs4)cc3)C2)c1` (centres unmarked) [Example 263, 4-{[3-(3-Methoxybenzyl)piperidin-1-yl]carbonyl}-N-1,3-thiazol-2-yl-benzenesulfonamide], the pIC50 is 5.95.

`O=C(NCc1cccc(OC(F)(F)F)c1)c1ccc(S(=O)(=O)Nc2ncc(Cl)s2)cc1` [Example 29, 4-{[(5-Chloro-1,3-thiazol-2-yl)amino]sulfonyl}-N-[3-(trifluoromethoxy)benzyl]benzamide]: the pIC50 was 6.77.

Regarding `CC(NC(=O)c1ccc(S(=O)(=O)Nc2ncns2)c(F)c1)c1ccc(C(F)(F)F)cc1` (centres unmarked) [Example 320, 3-Fluoro-4-[(1,2,4-thiadiazol-5-ylamino)sulfonyl]-N-{1-[4-(trifluoromethyl)phenyl]ethyl}benzamide], the pIC50 was 5.58.

Take `O=C(NCc1ccc(C(F)(F)F)cc1)c1ccc(S(=O)(=O)Nc2ncc(Cl)s2)c(F)c1` [Example 315, 4-{[(5-Chloro-1,3-thiazol-2-yl)amino]sulfonyl}-3-fluoro-N-[4-(trifluoromethyl)benzyl] benzamide]: the pIC50 is 6.96.

Take `O=C(NCc1ccc(OC(F)(F)F)cc1)c1ccc(S(=O)(=O)Nc2ncc(Cl)s2)c(Cl)c1` [Example 362, 3-Chloro-4-{[(5-chloro-1,3-thiazol-2-yl)amino]sulfonyl}-N-[4-(trifluoromethoxy)benzyl]benzamide]: the pIC50 was 5.96.

Take `O=C(NCc1cccc(OC(F)(F)F)c1)c1ccc(S(=O)(=O)Nc2nccs2)cc1F` [Example 335, 2-Fluoro-4-[(1,3-thiazol-2-ylamino)sulfonyl]-N-[3-(trifluoromethoxy)benzyl]benzamide]: the pIC50 is 6.70.

With `O=C(c1ccc(S(=O)(=O)Nc2nccs2)cc1)N1CCSCC1c1ccccc1Cl` (centres unmarked) [Example 46, 4-{[3-(2-Chlorophenyl)thiomorpholin-4-yl]carbonyl}-N-1,3-thiazol-2-ylbenzenesulfonamide], the pIC50 was 5.81.

For the compound `O=C(NCc1ccc(F)c(F)c1)c1ccc(S(=O)(=O)Nc2ncc(Cl)s2)c(Cl)c1` [Example 371, 3-Chloro-4-{[(5-chloro-1,3-thiazol-2-yl)amino]sulfonyl}-N-(3,4-difluorobenzyl) benzamide], the pIC50 is 5.89.

As for `O=C(NCc1ccc(C(F)(F)F)cc1)c1ccc(S(=O)(=O)Nc2nccs2)nc1` [Example 417, 6-[(1,3-Thiazol-2-ylamino)sulfonyl]-N-[4-(trifluoromethyl)benzyl]nicotinamide], the pIC50 was 6.68.

Consider `O=C(c1ccc(S(=O)(=O)Nc2nccs2)cc1)N1CCO[C@H]2Cc3ccccc3[C@H]21` [Example 52, 4-[(4aR,9aS)-2,3,9,9a-tetrahydroindeno[2,1-b][1,4]oxazin-4(4aH)-ylcarbonyl]-N-1,3-thiazol-2-ylbenzenesulfonamide], for which the pIC50 is 5.54.

On to `O=C(NCc1ccc(OC(F)(F)F)c(Cl)c1)c1ccc(S(=O)(=O)Nc2ncns2)cc1Cl` [Example 378, 2-Chloro-N-[3-chloro-4-(trifluoromethoxy)benzyl]-4-[(1,2,4-thiadiazol-5-ylamino)sulfonyl] benzamide], for which the pIC50 was 6.74.

For `O=C(NCc1ccc(F)c(OC(F)(F)F)c1)c1ccc(S(=O)(=O)Nc2nccs2)c(F)c1` [Example 300, 3-Fluoro-N-[4-fluoro-3-(trifluoromethoxy)benzyl]-4-[(1,3-thiazol-2-ylamino)sulfonyl]benzamide], the pIC50 was 6.89.

For `O=C(NCc1ccc(F)c(Cl)c1)c1ccc(S(=O)(=O)Nc2nccs2)c(F)c1` [Example 299, N-(3-chloro-4-fluorobenzyl)-3-fluoro-4-[(1,3-thiazol-2-yl-amino)sulfonyl]benzamide], the pIC50 is 6.96.

Consider `O=C(c1ccc(S(=O)(=O)Nc2nccs2)cc1)N1CCOC[C@H]1c1ccccc1` [Example 48, 4-{[(3R)-3-phenylmorpholin-4-yl]carbonyl}-N-1,3-thiazol-2-ylbenzenesulfonamide], for which the pIC50 was less than 6.00.

Regarding `Cc1ccc(CNC(=O)c2ccc(S(=O)(=O)Nc3nccs3)cc2)cc1Cl` [Example 400, N-(3-chloro-4-methylbenzyl)-4-[(1,3-thiazol-2-ylamino)sulfonyl] benzamide], the pIC50 was 7.15.

With `CCc1nsc(NS(=O)(=O)c2ccc(C(=O)NCc3ccc(C(F)(F)F)cc3)cc2)n1` [Example 19, 4-{[(3-Ethyl-1,2,4-thiadiazol-5-yl)amino]sulfonyl}-N-[4-(trifluoromethyl)benzyl]benzamide], the pIC50 is 4.86.

Turning to `O=C(NCc1ccc(C(F)(F)F)c(F)c1)c1ccc(S(=O)(=O)Nc2nccs2)cc1F` [Example 333, 2-Fluoro-N-[3-fluoro-4-(trifluoromethyl)benzyl]-4-[(1,3-thiazol-2-ylamino)sulfonyl] benzamide], the pIC50 is 6.68.

Turning to `O=C(c1ccc(S(=O)(=O)Nc2nccs2)cc1)N1CCC(O)(c2cccc(F)c2)CC1` [Example 220, 4-{[4-(3-Fluorophenyl)-4-hydroxypiperidin-1-yl]carbonyl}-N-1,3-thiazol-2-yl-benzenesulfonamide], the pIC50 is less than 6.00.

For the compound `O=C(NCc1ccc(C(F)(F)F)nc1)c1ccc(S(=O)(=O)Nc2nccs2)cc1` [Example 408, 4-[(1,3-Thiazol-2-ylamino)sulfonyl]-N-{[6-(trifluoromethyl)pyridin-3-yl]methyl}benzamide], the pIC50 is 5.96.

Staying with this assay, now noted: read-out: SCN3A EIC-50.
Turning to `O=C(NCc1ccc(C(F)(F)F)c(F)c1)c1ccc(S(=O)(=O)Nc2ncc(Cl)s2)cn1` [Example 345, 5-{[(5-Chloro-1,3-thiazol-2-yl)amino]sulfonyl}-N-[3-fluoro-4-(trifluoromethyl)benzyl] pyridine-2-carboxamide], the pIC50 was 6.57.
